Test results from patent US20240390340A1 (INCYTE CORPORATION, priority 2023, published 2024).

How the values were obtained:
[1] = molecular target: KRAS G12D (Homo sapiens, UniProt P01116, G12D); experiment: GDP-GTP exchange assay (bodipy-GDP/GppNHp, SOS1), KRAS G12D; format: biochemical; details: bodipy-loaded KRAS G12D 2.5 nM, 4 h pre-incubation; value for the most potent isomer quoted for certain compounds; read-out: G12D (KRAS G12D exchange assay IC50)
[2] = molecular target: KRAS G12V (Homo sapiens, UniProt P01116, G12V); experiment: GDP-GTP exchange assay (bodipy-GDP/GppNHp, SOS1), KRAS G12V; format: biochemical; details: KRAS G12V mutant; value for the most potent isomer quoted for certain compounds; read-out: G12V (KRAS G12V exchange assay IC50)
Sequence of KRAS G12V (P01116 1-188 isoform P01116-2 G12V): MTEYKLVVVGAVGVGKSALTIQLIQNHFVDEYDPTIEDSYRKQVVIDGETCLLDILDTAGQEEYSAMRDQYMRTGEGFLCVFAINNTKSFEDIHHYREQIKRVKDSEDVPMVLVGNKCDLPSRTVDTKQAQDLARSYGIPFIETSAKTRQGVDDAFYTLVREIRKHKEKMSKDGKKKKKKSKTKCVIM

Sequence of KRAS G12D (P01116 1-188 isoform P01116-2 G12D): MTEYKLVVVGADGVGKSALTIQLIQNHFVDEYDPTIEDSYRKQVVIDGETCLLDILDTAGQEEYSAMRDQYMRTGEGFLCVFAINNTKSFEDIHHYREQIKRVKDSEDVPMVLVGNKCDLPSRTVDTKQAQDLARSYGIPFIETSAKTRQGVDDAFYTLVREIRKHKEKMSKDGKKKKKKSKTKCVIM

Structure (SMILES) | IC50 [1] | IC50 [2]
Cc1nc2c(F)c(-c3cccc(Cl)c3Cl)c(CCC#N)cc2c2c1cc([C@H]1C[C@H](OCc3cnco3)CN1C(=O)C1CC1)n2[C@H]1[C@H]2CN[C@@H]1C2 [Example 258] | ≤ 100 nM | ≤ 100 nM
Cc1nc2c(F)c(-c3cccc(Cl)c3Cl)c(CCC#N)cc2c2c1cc([C@H]1C[C@H](OCc3ccnc(C(F)(F)F)c3)CN1C(=O)C1CC1)n2[C@H]1[C@H]2CN[C@@H]1C2 [Example 259] | ≤ 100 nM | ≤ 100 nM
Cc1nc2c(F)c(-c3cccc(Cl)c3Cl)c(CCC#N)cc2c2c1cc([C@H]1C[C@H](OCc3ccc(C(F)(F)F)nc3)CN1C(=O)C1CC1)n2[C@H]1[C@H]2CN[C@@H]1C2 [Example 260] | ≤ 100 nM | ≤ 100 nM
COc1cccc(CO[C@H]2C[C@H](c3cc4c(C)nc5c(F)c(-c6cccc(Cl)c6Cl)c(CCC#N)cc5c4n3[C@H]3[C@H]4CN[C@@H]3C4)N(C(=O)C3CC3)C2)n1 [Example 267] | ≤ 100 nM | ≤ 100 nM
Cc1nc2c(F)c(-c3cccc(Cl)c3Cl)c(CCC#N)cc2c2c1cc([C@H]1C[C@H](OCc3cccnc3C(F)(F)F)CN1C(=O)C1CC1)n2[C@H]1[C@H]2CN[C@@H]1C2 [Example 268] | ≤ 100 nM | ≤ 100 nM
Cc1nc2c(F)c(-c3cccc(Cl)c3Cl)c(CCC#N)cc2c2c1cc([C@H]1C[C@H](n3cc(CC4CCNC4=O)nn3)CN1C(=O)C1CC1)n2[C@H]1[C@H]2CN[C@@H]1C2 (stereo partly shown) [Example 269] | ≤ 100 nM | ≤ 100 nM
CC(=O)N(C)Cc1cn([C@H]2C[C@H](c3cc4c(C)nc5c(F)c(-c6cccc(Cl)c6Cl)c(CCC#N)cc5c4n3[C@H]3[C@H]4CN[C@@H]3C4)N(C(=O)C3CC3)C2)nn1 [Example 271] | ≤ 100 nM | ≤ 100 nM
CC(=O)NC(C)(C)c1cn([C@H]2C[C@H](c3cc4c(C)nc5c(F)c(-c6cccc(Cl)c6Cl)c(CCC#N)cc5c4n3[C@H]3[C@H]4CN[C@@H]3C4)N(C(=O)C3CC3)C2)nn1 [Example 272] | ≤ 100 nM | ≤ 100 nM
Cc1nc2c(F)c(-c3cccc(Cl)c3Cl)c(CCC#N)cc2c2c1cc([C@H]1C[C@H](n3cc(C4CNC(=O)C4)nn3)CN1C(=O)C1CC1)n2[C@H]1[C@H]2CN[C@@H]1C2 (stereo partly shown) [Example 273] | ≤ 100 nM | ≤ 100 nM
Cc1nc2c(F)c(-c3cccc(Cl)c3Cl)c(CCC#N)cc2c2c1cc([C@H]1C[C@H](n3cc([C@]45C[C@H](CN4)C5)nn3)CN1C(=O)C1CC1)n2[C@H]1[C@H]2CN[C@@H]1C2 [Example 274] | ≤ 100 nM | ≤ 100 nM
Cc1nc2c(F)c(-c3cccc(Cl)c3Cl)c(CCC#N)cc2c2c1cc([C@H]1C[C@H](n3cc(C45CC(N)(C4)C5)nn3)CN1C(=O)C1CC1)n2[C@H]1[C@H]2CN[C@@H]1C2 [Example 275] | ≤ 100 nM | ≤ 100 nM
Cc1nc2c(F)c(-c3cccc(Cl)c3Cl)c(CCC#N)cc2c2c1cc([C@H]1C[C@H](n3cncn3)CN1C(=O)C1CC1)n2[C@H]1[C@H]2CN[C@@H]1C2 [Example 276] | ≤ 100 nM | ≤ 100 nM
Cc1ncn([C@H]2C[C@H](c3cc4c(C)nc5c(F)c(-c6cccc(Cl)c6Cl)c(CCC#N)cc5c4n3[C@H]3[C@H]4CN[C@@H]3C4)N(C(=O)C3CC3)C2)n1 [Example 277] | ≤ 100 nM | ≤ 100 nM
Cc1nc2c(F)c(-c3cccc(Cl)c3Cl)c(CCC#N)cc2c2c1cc([C@H]1C[C@H](n3cnc(C4CC4)n3)CN1C(=O)C1CC1)n2[C@H]1[C@H]2CN[C@@H]1C2 [Example 278] | ≤ 100 nM | ≤ 100 nM
Cc1cnn([C@H]2C[C@H](c3cc4c(C)nc5c(F)c(-c6cccc(Cl)c6Cl)c(CCC#N)cc5c4n3[C@H]3[C@H]4CN[C@@H]3C4)N(C(=O)C3CC3)C2)c1 [Example 279] | ≤ 100 nM | ≤ 100 nM
CCc1cnn([C@H]2C[C@H](c3cc4c(C)nc5c(F)c(-c6cccc(Cl)c6Cl)c(CCC#N)cc5c4n3[C@H]3[C@H]4CN[C@@H]3C4)N(C(=O)C3CC3)C2)c1 [Example 280] | ≤ 100 nM | ≤ 100 nM
Cc1nc2c(F)c(-c3cccc(Cl)c3Cl)c(CCC#N)cc2c2c1cc([C@H]1C[C@H](n3cc(C#N)cn3)CN1C(=O)C1CC1)n2[C@H]1[C@H]2CN[C@@H]1C2 [Example 281] | ≤ 100 nM | ≤ 100 nM
Cc1cn([C@H]2C[C@H](c3cc4c(C)nc5c(F)c(-c6cccc(Cl)c6Cl)c(CCC#N)cc5c4n3[C@H]3[C@H]4CN[C@@H]3C4)N(C(=O)C3CC3)C2)cn1 [Example 282] | ≤ 100 nM | ≤ 100 nM
Cc1cc(F)ncc1O[C@H]1C[C@H](c2cc3c(C)nc4c(F)c(-c5cccc(Cl)c5Cl)c(CCC#N)cc4c3n2[C@H]2[C@H]3CN[C@@H]2C3)N(C(=O)C2CC2)C1 [Example 283] | ≤ 100 nM | ≤ 100 nM
Cc1nc2c(F)c(-c3cccc(Cl)c3Cl)c(CCC#N)cc2c2c1cc([C@H]1C[C@H](Oc3cccnc3N3CCOCC3)CN1C(=O)C1CC1)n2[C@H]1[C@H]2CN[C@@H]1C2 [Example 284] | ≤ 100 nM | ≤ 100 nM
Cc1nc2c(F)c(-c3cccc(Cl)c3Cl)c(CCC#N)cc2c2c1cc([C@H]1C[C@H](OC[C@@H]3CCCC[C@H]3C#N)CN1C(=O)C1CC1)n2[C@H]1[C@H]2CN[C@@H]1C2 [Example 285] | ≤ 100 nM | ≤ 100 nM

Structure (SMILES) | IC50 [1] | IC50 [2]
Cc1nc2c(F)c(-c3cccc(Cl)c3Cl)c(CCC#N)cc2c2c1cc([C@H]1C[C@H](OC[C@@H]3CCCC[C@H]3C)CN1C(=O)C1CC1)n2[C@H]1[C@H]2CN[C@@H]1C2 [Example 286] | 1000 to 5000 nM | 100 to 1000 nM
COc1cc(O[C@H]2C[C@H](c3cc4c(C)nc5c(F)c(-c6cccc(Cl)c6Cl)c(CCC#N)cc5c4n3[C@H]3[C@H]4CN[C@@H]3C4)N(C(=O)C3CC3)C2)ccc1C#N [Example 287] | ≤ 100 nM | ≤ 100 nM
Cc1nc2c(F)c(-c3cccc(Cl)c3Cl)c(CCC#N)cc2c2c1cc([C@H]1C[C@H](Oc3cccnc3N)CN1C(=O)C1CC1)n2[C@H]1[C@H]2CN[C@@H]1C2 [Example 288] | ≤ 100 nM | ≤ 100 nM
Cc1nc2c(F)c(-c3cccc(Cl)c3Cl)c(CCC#N)cc2c2c1cc([C@H]1C[C@H](Oc3cncc4c3OCCC4)CN1C(=O)C1CC1)n2[C@H]1[C@H]2CN[C@@H]1C2 [Example 289] | ≤ 100 nM | ≤ 100 nM
Cc1nc2c(F)c(-c3cccc(Cl)c3Cl)c(CCC#N)cc2c2c1cc([C@H]1C[C@H](Oc3ccc(C#N)nc3)CN1C(=O)C1CC1)n2[C@H]1[C@H]2CN[C@@H]1C2 [Example 290] | ≤ 100 nM | ≤ 100 nM
Cc1nc2c(F)c(-c3cccc(Cl)c3Cl)c(CCC#N)cc2c2c1cc([C@H]1C[C@H](Oc3ccc(C#N)cc3F)CN1C(=O)C1CC1)n2[C@H]1[C@H]2CN[C@@H]1C2 [Example 291] | ≤ 100 nM | ≤ 100 nM
COc1cc(C#N)ccc1O[C@H]1C[C@H](c2cc3c(C)nc4c(F)c(-c5cccc(Cl)c5Cl)c(CCC#N)cc4c3n2[C@H]2[C@H]3CN[C@@H]2C3)N(C(=O)C2CC2)C1 [Example 292] | ≤ 100 nM | ≤ 100 nM
Cc1nc2c(F)c(-c3cccc(Cl)c3Cl)c(CCC#N)cc2c2c1cc([C@H]1C[C@H](Oc3c(F)cc(C#N)cc3F)CN1C(=O)C1CC1)n2[C@H]1[C@H]2CN[C@@H]1C2 [Example 293] | ≤ 100 nM | ≤ 100 nM
Cc1nc2c(F)c(-c3cccc(Cl)c3Cl)c(CCC#N)cc2c2c1cc([C@H]1C[C@H](Oc3cccnc3C#N)CN1C(=O)C1CC1)n2[C@H]1[C@H]2CN[C@@H]1C2 [Example 294] | ≤ 100 nM | ≤ 100 nM
Cc1c(O[C@H]2C[C@H](c3cc4c(C)nc5c(F)c(-c6cccc(Cl)c6Cl)c(CCC#N)cc5c4n3[C@H]3[C@H]4CN[C@@H]3C4)N(C(=O)C3CC3)C2)ccnc1Cl [Example 295] | ≤ 100 nM | ≤ 100 nM
Cc1nc2c(F)c(-c3cccc(Cl)c3Cl)c(CCC#N)cc2c2c1cc([C@H]1C[C@H](Oc3ccc(N)nc3)CN1C(=O)C1CC1)n2[C@H]1[C@H]2CN[C@@H]1C2 [Example 296] | ≤ 100 nM | ≤ 100 nM
Cc1nc2c(F)c(-c3cccc(Cl)c3Cl)c(CCC#N)cc2c2c1cc([C@H]1C[C@H](Oc3cc(Cl)ccn3)CN1C(=O)C1CC1)n2[C@H]1[C@H]2CN[C@@H]1C2 [Example 297] | ≤ 100 nM | ≤ 100 nM
COc1nccc(C#N)c1O[C@H]1C[C@H](c2cc3c(C)nc4c(F)c(-c5cccc(Cl)c5Cl)c(CCC#N)cc4c3n2[C@H]2[C@H]3CN[C@@H]2C3)N(C(=O)C2CC2)C1 [Example 298] | ≤ 100 nM | ≤ 100 nM
Cc1nc2c(F)c(-c3cccc(Cl)c3Cl)c(CCC#N)cc2c2c1cc([C@H]1C[C@H](Oc3cn(C)nc3C(F)F)CN1C(=O)C1CC1)n2[C@H]1[C@H]2CN[C@@H]1C2 [Example 299] | ≤ 100 nM | ≤ 100 nM
COc1ccc(O[C@H]2C[C@H](c3cc4c(C)nc5c(F)c(-c6cccc(Cl)c6Cl)c(CCC#N)cc5c4n3[C@H]3[C@H]4CN[C@@H]3C4)N(C(=O)C3CC3)C2)cn1 [Example 301] | ≤ 100 nM | ≤ 100 nM
Cc1nc2c(F)c(-c3cccc(Cl)c3Cl)c(CCC#N)cc2c2c1cc([C@H]1C[C@H](Oc3cnccc3C#N)CN1C(=O)C1CC1)n2[C@H]1[C@H]2CN[C@@H]1C2 [Example 302] | ≤ 100 nM | ≤ 100 nM
COc1cc(O[C@H]2C[C@H](c3cc4c(C)nc5c(F)c(-c6cccc(Cl)c6Cl)c(CCC#N)cc5c4n3[C@H]3[C@H]4CN[C@@H]3C4)N(C(=O)C3CC3)C2)ccn1 [Example 304] | ≤ 100 nM | ≤ 100 nM
C#Cc1ccc(O[C@H]2C[C@H](c3cc4c(C)nc5c(F)c(-c6cccc(Cl)c6Cl)c(CCC#N)cc5c4n3[C@H]3[C@H]4CN[C@@H]3C4)N(C(=O)C3CC3)C2)nc1 [Example 305] | ≤ 100 nM | ≤ 100 nM
Cc1nc(O[C@H]2C[C@H](c3cc4c(C)nc5c(F)c(-c6cccc(Cl)c6Cl)c(CCC#N)cc5c4n3[C@H]3[C@H]4CN[C@@H]3C4)N(C(=O)C3CC3)C2)ccc1C#N [Example 306] | ≤ 100 nM | ≤ 100 nM
COc1cccnc1O[C@H]1C[C@H](c2cc3c(C)nc4c(F)c(-c5cccc(Cl)c5Cl)c(CCC#N)cc4c3n2[C@H]2[C@H]3CN[C@@H]2C3)N(C(=O)C2CC2)C1 [Example 307] | 100 to 1000 nM | 100 to 1000 nM
